Values of other authors as cited in paper PMC5263201, “GABAA receptor occupancy by subtype selective GABAAα2,3 modulators: PET studies in humans” (Psychopharmacology, 2016).
Where two headings read alike, the source gives them in different places.

How the values were obtained:
[1] = target: BZ binding site, hippocampus synaptosomal membranes; parameters: method as in Dubinsky et al 2002; conditions: (e) rat brain synaptosomal membranes; [3H]Ro15-4513; ref Dubinsky et al 2002; read-out: Affinity in vitro at BZ binding site (Ki), hippocampus; cited from earlier work
GABAA receptor [2] = conditions: cited from earlier work; for Receptor occupancy: ref Atack et al 2010a
GABAA receptor α2 = target: GABAA receptor α2; parameters: method as in Sieghart 1995; conditions: (d) review; ref Sieghart 1995; read-out: Affinity in vitro at BZ binding site (Ki) α2; cited from earlier work
GABAA receptor α3 = target: GABAA receptor α3; parameters: method as in Sieghart 1995; conditions: (d) review; ref Sieghart 1995; read-out: Affinity in vitro at BZ binding site (Ki) α3; cited from earlier work
GABAA receptor α5 = target: GABAA receptor α5; parameters: method as in Sieghart 1995; conditions: (d) review; ref Sieghart 1995; read-out: Affinity in vitro at BZ binding site (Ki) α5; cited from earlier work
[3] = target: GABAA α1, α2, α3, and α5 subunits; parameters: method as in Sieghart 1995; conditions: ref Sieghart 1995; read-out: K i for the GABAA α1, α2, α3, and α5 subunits; cited from earlier work
GABAA α4 and α6 subunits = target: GABAA α4 and α6 subunits; parameters: method as in Sieghart 1995; conditions: ref Sieghart 1995; read-out: K i for the α4 and α6 subunits; cited from earlier work
[4] = target: human recombinant GABAA receptors containing β3, γ2 plus α1; parameters: method as in Atack et al 2010a; conditions: L(tk-) cells, human recombinant β3γ2 plus α1; mean (SEM); ref Atack et al 2010a; read-out: Affinity in vitro at BZ binding site (Ki) α1; cited from earlier work
[5] = target: human recombinant GABAA receptors containing β3, γ2 plus α2; parameters: method as in Atack et al 2010a; conditions: L(tk-) cells, human recombinant β3γ2 plus α2; mean (SEM); ref Atack et al 2010a; read-out: Affinity in vitro at BZ binding site (Ki) α2; cited from earlier work
[6] = target: human recombinant GABAA receptors containing β3, γ2 plus α3; parameters: method as in Atack et al 2010a; conditions: L(tk-) cells, human recombinant β3γ2 plus α3; mean (SEM); ref Atack et al 2010a; read-out: Affinity in vitro at BZ binding site (Ki) α3; cited from earlier work
[7] = target: human recombinant GABAA receptors containing β3, γ2 plus α5; parameters: method as in Atack et al 2010a; conditions: L(tk-) cells, human recombinant β3γ2 plus α5; mean (SEM); ref Atack et al 2010a; read-out: Affinity in vitro at BZ binding site (Ki) α5; cited from earlier work
GABAA α1β2γ2 = test system: GABAA α1β2γ2; parameters: method as in Christian et al 2015; conditions: 1µM test concentration, GABA EC10, % of 1 µM diazepam, mean ±SE, ref Christian et al 2015; cited from earlier work
GABAA α2β3γ2 = test system: GABAA α2β3γ2; parameters: method as in Christian et al 2015; conditions: 1µM test concentration, GABA EC10, % of 1 µM diazepam, mean ±SE, ref Christian et al 2015; cited from earlier work
GABAA α3β3γ2 = test system: GABAA α3β3γ2; parameters: method as in Christian et al 2015; conditions: 1µM test concentration, GABA EC10, % of 1 µM diazepam, mean ±SE, ref Christian et al 2015; cited from earlier work
GABAA α5β3γ2 = test system: GABAA α5β3γ2; parameters: method as in Christian et al 2015; conditions: 1µM test concentration, GABA EC10, % of 1 µM diazepam, mean ±SE, ref Christian et al 2015; cited from earlier work
[8] = test system: human recombinant GABAA receptors containing β3γ2 plus α1; parameters: method as in Atack et al 2010; conditions: ref Atack et al 2010, cited from earlier work; for Relative efficacy (%CDP) α1: maximum potentiation of GABA EC20 currents relative to chlordiazepoxide
[9] = test system: human recombinant GABAA receptors containing β3γ2 plus α2; parameters: method as in Atack et al 2010; conditions: maximum potentiation of GABA EC20 currents relative to chlordiazepoxide; ref Atack et al 2010; cited from earlier work
[10] = test system: human recombinant GABAA receptors containing β3γ2 plus α3; parameters: method as in Atack et al 2010; conditions: maximum potentiation of GABA EC20 currents relative to chlordiazepoxide; ref Atack et al 2010; cited from earlier work
[11] = test system: human recombinant GABAA receptors containing β3γ2 plus α5; parameters: method as in Atack et al 2010; conditions: maximum potentiation of GABA EC20 currents relative to chlordiazepoxide; ref Atack et al 2010; cited from earlier work
[12] = ref Atack et al 2010a; cited from earlier work
GABAA receptor α1 = target: GABAA receptor α1; parameters: method as in Sieghart 1995; conditions: (d) review; ref Sieghart 1995; read-out: Affinity in vitro at BZ binding site (Ki) α1; cited from earlier work
GABAA receptor [13] = test system: GABAA receptor; parameters: method as in Bottlaender et al 1994; conditions: In NHP; corresponds to 4-500 µg/kg; ref Bottlaender et al 1994; cited from earlier work
[14] = test system: human α1β2γ2 GABAA receptors; parameters: method as in Sanna et al 2002; conditions: GABA-evoked Cl- currents, means ±SE, ref Sanna et al 2002; cited from earlier work
[15] = test system: human α2β2γ2 GABAA receptors; parameters: method as in Sanna et al 2002; conditions: GABA-evoked Cl- currents, means ±SE, ref Sanna et al 2002; cited from earlier work
[16] = test system: human α3β2γ2 GABAA receptors; parameters: method as in Sanna et al 2002; conditions: GABA-evoked Cl- currents, means ±SE, ref Sanna et al 2002; cited from earlier work
[17] = test system: human α5β2γ2 GABAA receptors; parameters: method as in Sanna et al 2002; conditions: GABA-evoked Cl- currents, means ±SE, ref Sanna et al 2002; cited from earlier work
[18] = target: human recombinant GABAA receptors containing β3, γ2 plus α1; parameters: method as in Atack et al 1999; conditions: (c) human recombinant β3γ2 plus α1; [3H]Ro 15-1788; ref Atack et al 1999; read-out: Affinity in vitro at BZ binding site (Ki) α1; cited from earlier work
[19] = target: human recombinant GABAA receptors containing β3, γ2 plus α2; parameters: method as in Atack et al 1999; conditions: (c) human recombinant β3γ2 plus α2; [3H]Ro 15-1788; ref Atack et al 1999; read-out: Affinity in vitro at BZ binding site (Ki) α2; cited from earlier work
[20] = target: human recombinant GABAA receptors containing β3, γ2 plus α3; parameters: method as in Atack et al 1999; conditions: (c) human recombinant β3γ2 plus α3; [3H]Ro 15-1788; ref Atack et al 1999; read-out: Affinity in vitro at BZ binding site (Ki) α3; cited from earlier work
[21] = target: human recombinant GABAA receptors containing β3, γ2 plus α5; parameters: method as in Atack et al 1999; conditions: (c) human recombinant β3γ2 plus α5; [3H]Ro 15-1788; ref Atack et al 1999; read-out: Affinity in vitro at BZ binding site (Ki) α5; cited from earlier work

Cc1nnc2n1-c1ccc(Cl)cc1C(c1ccccc1)=NC2 [Alprazolam]
Ki [1]: 5 nM
Receptor occupancy (RO) (GABAA receptor [2]; 2mg/day, sedation, ref Fujita et al 1999): RO:16% (2mg/day, sedation) /Fujita et al 1999 Affinity: Dubinsky et al 2002

CN1C(=O)CN=C(c2ccccc2)c2cc(Cl)ccc21 [Diazepam]
Ki (GABAA receptor α2): 16.9 nM
Ki (GABAA receptor α3): 17 nM
Ki (GABAA receptor α5): 14.9 nM
Ki [1]: 12.6 nM
Receptor occupancy (RO) (GABAA receptor [2]; at 30mg, sedation, ref Pauli et al 1992): RO:24%, at 30mg, sedation/ Pauli et al 1992 Affinity: c) Atack et al 1999, d) Sieghart 1995;

CCOC(=O)c1ncn2c1CN(C)C(=O)c1cc(F)ccc1-2 [Flumazenil]
Ki [3]: ~1 nM
Ki (GABAA α4 and α6 subunits): ~150 nM

O=C1Nc2ccc(Cl)cc2C(c2ccccc2Cl)=NC1O (centres unmarked) [Lorazepam]
Ki [1]: 8.6 nM
Receptor occupancy (RO) (GABAA receptor [2]; 2 mg, ref Lindfors-Hughes et al 2005, Atack et al 2010b): RO: ≤10% (2 mg) / Lindfors-Hughes et al 2005, Atack et al 2010b Affinity: Dubinsky et al 2002

CCn1ncnc1COc1nn2c(-c3ccccc3F)nnc2cc1C(C)(C)C [TPA-023, 7-(1,1-dimethylethyl)-6-(2-ethyl-2H-1,2,4-triazol-3-ylmethoxy)-3-(2-fluorophenyl)-1,2,4-triazolo[4,3-b]pyridazine]
Ki [4]: 0.27 nM
Ki [5]: 0.31 nM
Ki [6]: 0.19 nM
Ki [7]: 0.41 nM
Relative efficacy (%DZ) α1 (GABAA α1β2γ2): 5±3%
Relative efficacy (%DZ) α2 (GABAA α2β3γ2): 15±2%
Relative efficacy (%DZ) α3 (GABAA α3β3γ2): 17±1%
Relative efficacy (%DZ) α5 (GABAA α5β3γ2): 6±4%
Relative efficacy (%CDP) α1 [8]: 0%
comment on intrinsic activity at α1 [8]: Christian et al 2015 Atack et al 2010 /antagonist at α1
Relative efficacy (%CDP) α2 [9]: 11%
Relative efficacy (%CDP) α3 [10]: 21%
Relative efficacy (%CDP) α5 [11]: 5%
Receptor occupancy (GABAA receptor [2]; at 2mg, MTD): 35-65%
receptor occupancy with lack of overt sedation (GABAA receptor [2]; ref Atack et al. 2010, 2011a,b): up to 50%
maximum tolerated dose (MTD) [12]: 2 mg

CC(C)(O)c1cnn2c(-c3ccc(F)c(-c4c(F)cccc4C#N)c3)cnc2n1 [TPA-023B]
Ki [4]: 0.73 ± 0.21 nM
Ki [5]: 2 ± 0.4 nM
Ki [6]: 1.8 ± 0.4 nM
Ki [7]: 1.1 ± 0.2 nM
Relative efficacy (%CDP) α1 [8]: 3±1%
Relative efficacy (%CDP) α2 [9]: 38±4%
Relative efficacy (%CDP) α3 [10]: 50±2%
Relative efficacy (%CDP) α5 [11]: 37±4%
Receptor occupancy (GABAA receptor [2]; at 1.5 mg): 53%
maximum tolerated dose (MTD) [12]: 2 mg

Cc1nnc2n1-c1ccc(Cl)cc1C(c1ccccc1Cl)=NC2 [Triazolam]
Ki (GABAA receptor α1): 1.8 ± 0.4 nM
Ki (GABAA receptor α2): 1.2 ± 0.2 nM
Ki (GABAA receptor α3): 3 ± 0.7 nM
Ki (GABAA receptor α5): 1.2 ± 0.3 nM
Receptor occupancy (RO) (GABAA receptor [13]): In NHP: 5-100% RO corresponds to 4-500 µg/kg/ Bottlaender et al 1994 Affinity: Sieghart 1995
Relative efficacy (%) α1, maximal percentage potentiation [14]: 132±6%
Relative efficacy (%) α2, maximal percentage potentiation [15]: 255±11%
Relative efficacy (%) α3, maximal percentage potentiation [16]: 270±13%
Relative efficacy (%) α5, maximal percentage potentiation [17]: 165±8%

Cc1ccc(-c2nc3ccc(C)cn3c2CC(=O)N(C)C)cc1 [Zolpidem]
Ki [18]: 27 nM
Ki [19]: 160 nM
Ki [20]: 380 nM
Ki [21]: > 10000 nM
Ki (GABAA receptor α1): 17 nM
Ki (GABAA receptor α2): 291 nM
Ki (GABAA receptor α3): 357 nM
Relative efficacy (%) α1, maximal percentage potentiation [14]: 100±5%
Relative efficacy (%) α2, maximal percentage potentiation [15]: 198±20%
Relative efficacy (%) α3, maximal percentage potentiation [16]: 217±34%
Relative efficacy (%) α5, maximal percentage potentiation [17]: 15±5%
Receptor occupancy (RO) (GABAA receptor [2]; 20mg, drowsiness, ref Abadie et al 1996): 21%
Receptor occupancy (RO) (GABAA receptor [2]; at 10mg therapeutic dose, ref Abadie et al 1996): 15%

MRK-409
Ki [4]: 0.22 ± 0.02 nM
Ki [5]: 0.4 ± 0.07 nM
Ki [6]: 0.21 ± 0.03 nM
Ki [7]: 0.23 ± 0.04 nM
Relative efficacy (%CDP) α1 [8]: 18%
comment on intrinsic activity at α1 [8]: Atack et al 2010/weak partial agonist at α1
Relative efficacy (%CDP) α2 [9]: 23%
Relative efficacy (%CDP) α3 [10]: 45%
Relative efficacy (%CDP) α5 [11]: 18%
Receptor occupancy (GABAA receptor [2]; at 1mg, MTD): < 10%
receptor occupancy at severe sedation (GABAA receptor [2]; ref Atack et al. 2010, 2011a,b): < 10%
maximum tolerated dose (MTD) [12]: 1 mg
